In one series the test system is epidermal progenitors. Put plainly: Trypan blue cell viability after 7 days, epidermal progenitors. In kind it is cell-based, human. As to conditions: relative to control (untreated cells). As to the method: (§1) The effect of each of the decapeptides upon cell viability was also tested. In particular, cells were incubated with the decapeptide at various concentrations and then counted for viability relative to the control (untreated cells) using trypan blue. Cytotoxicity was measured according to the following formula: [1−(# of cells in control−# of live cells in test sample)/# of cells in control]×100 percent.

In series [1] the test system is fibroblasts. Put plainly: MTT cell proliferation, fibroblasts. In kind it is cell-based, human. As to the method:
(§2) Proliferation rates for three human cell lines (epidermal progenitors, melanoblasts, and fibroblasts) were determined using a TACS® MTT Cell Proliferation Kit. Cells were seeded at 2.5×10^4 per well in 96-well plates in a humidified atmosphere with 5 percent CO2 at 37 degrees Celsius. Twenty-four hours later, the decapeptides were added to the corresponding wells at varying concentrations and incubated for 72 hours. The remainder of the procedure was performed following the manufacturer's protocol.

Series [2] concerns human epidermal progenitors. Put plainly: MTT cell proliferation, epidermal progenitors. In kind it is cell-based. As for the experimental part: Proliferation rates were determined using a TACS® MTT Cell Proliferation Kit (R&D systems, Minneapolis, MN). Cells were seeded at 2.5×10^4 per well in 96-well plates in a humidified atmosphere with 5 percent CO2 at 37 degrees Celsius. Twenty-four hours later, decapeptide-12 or oxyresveratrol were added to the corresponding wells at varying concentrations (0, 3, 10, 30, 100, 300, and 1000 micromolar), and cultures were then incubated for 72 hours. The remainder of the procedure was performed following the manufacturer's protocol.
as §2

The subject of series [3] is fibroblasts. Put plainly: Trypan blue cell viability after 7 days, fibroblasts. In kind it is cell-based, human. As to conditions: 50 μM, relative to control (untreated cells). As to the method: as §1
Series [4] deals with melanoblasts. Nature of the series: Trypan blue cell viability after 7 days, melanoblasts. As to conditions: relative to control (untreated cells). In kind it is cell-based, human. As to the method: as §1
The subject of series [5] is melanoblasts. Put plainly: MTT cell proliferation, melanoblasts. In kind it is cell-based, human. As to the method: as §2
In series [6] the test system is PHA-stimulated PBMC. As to conditions: 0.1 millimolar; cited from earlier work.
Series [7] has as its system PHA-stimulated PBMC. Nature of the series: PHA-stimulated PBMC proliferation. As to conditions: PHA 72 hours. In kind it is cell-based, human. As for the experimental part: (§3) Cryopreserved human PBMCs were purchased from Astarte Biologics (Redmond, Washington, USA), activated with phytohemagglutinin (PHA), and proliferation assessed. Interleukin (IL)-2 activated human NK cell cytotoxic killing of human K562 cells was assessed using a CytoTox96 non-radioactive cytotoxicity assay kit (Promega). Protease inhibitor was added to the media to prevent degradation of decapeptide-12.
(§4) Three independent trials were performed for each experiment. Microsoft Excel (Seattle, Washington) was used to calculate means and standard errors and statistical significance was determined using unpaired analysis of variance or two-tailed student T-test. P values <0.05 were taken to be statistically significant.
The effects of decapeptide-12 and oxyresveratrol on PBMC proliferation rates after exposure to PHA for 72 hours, were explored.

Series [8] deals with IL-2 activated human NK cell cytotoxic killing of human K562 cells. Put plainly: NK cytotoxic killing of K562 cells (CytoTox96). In kind it is cell-based. As to the method:
as §3, §4
The impact of decapeptide-12 on IL-2 primed NK-mediated cytotoxic killing of K562 cells, was also assessed.

We go through six compounds from patent US12414978B2, “Tyrosine inhibitors with immunosuppressive activity in human neonatal keratinocyte progenitors” (ESCAPE THERAPEUTICS, INC., priority 2019, dated 2025).

Square brackets hold non-standard residues; d marks the D form. Ends that are not written are not given here. Peptide text beside a SMILES is read from it. * marks the point of attachment. Palmitoyl = CCCCCCCCCCCCCCCC(=O)*

With `CCCCCCCCCCCCCCCC(=O)N[C@@H](Cc1ccc(O)cc1)C(=O)N[C@@H](CCCNC(=N)N)C(=O)N[C@@H](CO)C(=O)N[C@@H](CCCNC(=N)N)C(=O)N[C@@H](CCCCN)C(=O)N[C@@H](Cc1ccc(O)cc1)C(=O)N[C@@H](CO)C(=O)N[C@@H](CO)C(=O)N[C@@H](Cc1c[nH]c2ccccc12)C(=O)N[C@@H](Cc1ccc(O)cc1)C(N)=O` [P4A, Palmitoyl-YRSRKYSSWY-amide] (Palmitoyl-YRSRKYSSWY-NH2), the “epidermal progenitor viability after 7 days” value (shortened to “epidermal progenitor viability”) with epidermal progenitors (10 μM) is 99 ± 1%. Also, the “fibroblast proliferation rate after 72 hours” value (“fibroblast proliferation rate” below) in the series with fibroblasts [1] (3 μM) was 100%; with fibroblasts [1] (10 μM), 99 ± 1%; in the series on fibroblasts [1] (30 μM) it was 98 ± 1%; with fibroblasts [1] (50 μM), 98 ± 1%; with fibroblasts [1] (100 μM), 97 ± 2%; with fibroblasts [1] (300 μM), 97 ± 2%. Moreover, the entries for the “fibroblast proliferation rate” value with fibroblasts [1] (500 μM) and in the series on fibroblasts [1] (1000 μM) were 96 ± 2% and 95 ± 2%, respectively. Besides, the “epidermal progenitor proliferation rate after 72 hours” value in series [2] (3 μM) stood at 99 ± 1%; in series [2] (10 μM), 99 ± 1%; in series [2] (30 μM), 98 ± 1%; in [2] (50 μM), 97 ± 1%; in [2] (100 μM), 97 ± 2%; in series [2] (300 μM) it was 96 ± 2%. For the same compound, the figures for the “epidermal progenitor proliferation rate after 72 hours” value in series [2] (500 μM) and in series [2] (1000 μM) were 96 ± 2% and 94 ± 2%, respectively. In addition, the “fibroblast viability after 7 days” value in the series on fibroblasts [3] is listed as 98 ± 1%. The figures for the “melanoblast viability after 7 days” value in the series on melanoblasts [4] (10 μM), in the series on melanoblasts [4] (50 μM) and with melanoblasts [4] (100 μM) were 99 ± 1%, 98 ± 1% and 97 ± 2%, respectively. The “melanoblast proliferation rate after 72 hours” value (shortened to “melanoblast proliferation rate”) in the series with melanoblasts [5] (3 μM) was 100%; in the series with melanoblasts [5] (10 μM), 100%; with melanoblasts [5] (30 μM), 99 ± 1%; with melanoblasts [5] (50 μM), 98 ± 1%; in the series on melanoblasts [5] (100 μM), 97 ± 2%; in the series with melanoblasts [5] (300 μM) it was 97 ± 2%. The “melanoblast proliferation rate” value was 96 ± 2% in the series with melanoblasts [5] (500 μM) and 95 ± 2% in the series on melanoblasts [5] (1000 μM).

In the case of YRSRKYSSWY [P4, YRSRKYSSWY], in the series with epidermal progenitors (10 μM), the “epidermal progenitor viability” value is on record as 99 ± 1%. Moreover, the “melanoblast viability after 7 days” value with melanoblasts [4] (10 μM) is 99 ± 1%; in the series on melanoblasts [4] (50 μM) it was 98 ± 1%; in the series with melanoblasts [4] (1000 μM), 94 ± 2%.

Take “Ac-YRSRKYSSWY-NH2 [P4C, Acetyl-YRSRKYSSWY-amide]”: the results for the “epidermal progenitor viability” value in the series on epidermal progenitors (10 μM), in the series with epidermal progenitors (30 μM) and in the series on epidermal progenitors (1000 μM) were 99 ± 1%, 98 ± 1% and 94 ± 3%, respectively. In addition, the “fibroblast proliferation rate” value amounted to 100% with fibroblasts [1] (3 μM); 99 ± 1% in the series on fibroblasts [1] (10 μM); 99 ± 1% in the series on fibroblasts [1] (30 μM); 99 ± 1% with fibroblasts [1] (50 μM); 98 ± 2% with fibroblasts [1] (100 μM); 97 ± 2% with fibroblasts [1] (300 μM). The “fibroblast proliferation rate” value in the series on fibroblasts [1] (500 μM) and in the series with fibroblasts [1] (1000 μM) was 96 ± 2% throughout. Moreover, the “epidermal progenitor proliferation rate after 72 hours” value in series [2] (3 μM) is recorded as 99 ± 1%; in series [2] (10 μM), 99 ± 1%; in series [2] (30 μM) it was 98 ± 1%; in [2] (50 μM), 98 ± 1%; in [2] (100 μM), 97 ± 1%; in series [2] (300 μM), 97 ± 1%. Also, the “epidermal progenitor proliferation rate after 72 hours” value in series [2] (500 μM) and in series [2] (1000 μM) was 96 ± 2% throughout. For the same compound, the “melanoblast viability after 7 days” value turned out to be 99 ± 1% in the series on melanoblasts [4] (10 μM), 97 ± 2% with melanoblasts [4] (100 μM) and 96 ± 3% with melanoblasts [4] (300 μM). For the same compound, the “melanoblast proliferation rate” value in the series on melanoblasts [5] (3 μM) amounted to 100%; with melanoblasts [5] (10 μM), 100%; in the series with melanoblasts [5] (30 μM), 99 ± 1%; in the series on melanoblasts [5] (50 μM), 98 ± 1%; with melanoblasts [5] (100 μM), 97 ± 2%; in the series with melanoblasts [5] (300 μM), 96 ± 3%. Also, the “melanoblast proliferation rate” value in the series with melanoblasts [5] (500 μM) and in the series with melanoblasts [5] (1000 μM) was 95 ± 2% throughout.

`Oc1ccc(C=Cc2cc(O)cc(O)c2)cc1` [resveratrol]: the “inhibition of PHA-induced proliferation” value in the series on PHA-stimulated PBMC [6] is listed as “inhibits”.

In turn, `Oc1cc(O)cc(/C=C/c2ccc(O)cc2O)c1` [oxyresveratrol] showed a reduction in proliferation in series [2] (1 millimolar (1000 micromolar), 72 hours, epidermal progenitors) of 12±2%. Besides, the “reduction of PHA-stimulated PBMC proliferation” value was 35.3±1.8% with PHA-stimulated PBMC [7] (0.1 millimolar), “progressively less inhibition” in the series with PHA-stimulated PBMC [7] (0.3 millimolar), “progressively less inhibition” in the series with PHA-stimulated PBMC [7] (1 millimolar) and 14.7±3.4% with PHA-stimulated PBMC [7] (3 millimolar). In addition, the “reduction of NK killing of K562 cells” value was found to be 88.7±1.8% in series [8] (0.1 millimolar, E:T ratio 10:1); 72.8±1.9% in [8] (0.1 millimolar, E:T ratio 30:1); 86.1±0.9% in [8] (0.3 millimolar, E:T ratio 10:1); 64.0±3.4% in series [8] (0.3 millimolar, E:T ratio 30:1).

On to `CCCCCCCCCCCCCCCC(=O)N[C@@H](Cc1ccc(O)cc1)C(=O)N[C@@H](CCCNC(=N)N)C(=O)N[C@@H](CO)C(=O)N[C@@H](CCCNC(=N)N)C(=O)N[C@@H](CCCCN)C(=O)N[C@H](Cc1ccc(O)cc1)C(=O)N[C@@H](CO)C(=O)N[C@@H](CO)C(=O)N[C@@H](Cc1c[nH]c2ccccc12)C(=O)N[C@@H](Cc1ccc(O)cc1)C(N)=O` [P4B, Palmitoyl-YRSRK[*Y]SSWY-amide] (Palmitoyl-YRSRK[dY]SSWY-NH2), for which the “epidermal progenitor viability” value with epidermal progenitors (10 μM) is reported as 99 ± 1%; in the series with epidermal progenitors (50 μM) it was 98 ± 1%; with epidermal progenitors (100 μM), 97 ± 1%. Moreover, the “fibroblast proliferation rate” value worked out at 100% with fibroblasts [1] (3 μM); 99 ± 1% with fibroblasts [1] (10 μM); 99 ± 1% in the series on fibroblasts [1] (30 μM); 99 ± 1% in the series with fibroblasts [1] (50 μM); 98 ± 2% in the series on fibroblasts [1] (100 μM); 97 ± 2% with fibroblasts [1] (300 μM). The “fibroblast proliferation rate” value with fibroblasts [1] (500 μM) and in the series with fibroblasts [1] (1000 μM) was 96 ± 2% each time. Besides, the “epidermal progenitor proliferation rate after 72 hours” value stood at 99 ± 1% in series [2] (3 μM); 99 ± 1% in [2] (10 μM); 98 ± 1% in series [2] (30 μM); 98 ± 1% in series [2] (50 μM); 97 ± 1% in series [2] (100 μM); 97 ± 1% in series [2] (300 μM). In addition, the “epidermal progenitor proliferation rate after 72 hours” value in series [2] (500 μM) amounted to 95 ± 2%; in series [2] (1000 μM) it was 94 ± 2%. Further, the “melanoblast proliferation rate” value in the series with melanoblasts [5] (3 μM) came to 100%; with melanoblasts [5] (10 μM), 100%; with melanoblasts [5] (30 μM) it was 99 ± 1%; in the series with melanoblasts [5] (50 μM), 98 ± 1%; in the series on melanoblasts [5] (100 μM), 97 ± 2%; in the series with melanoblasts [5] (300 μM) it was 96 ± 2%. Further, the “melanoblast proliferation rate” value in the series on melanoblasts [5] (500 μM) worked out at 95 ± 2%; with melanoblasts [5] (1000 μM), 94 ± 2%.
